According to article PMC9979163, “Discovery and functional characterization of N-(thiazol-2-yl)-benzamide analogs as the first class of selective antagonists of the Zinc-Activated Channel (ZAC)” (Biochemical pharmacology, 2021):

How the values were obtained:
[1] = target: T1, ZAC (Homo sapiens, UniProt Q401N2); test: TEVC recordings, H+-evoked currents at ZAC expressed in Xenopus oocytes; format: cell-based
T1 sequence (Q401N2 26-412): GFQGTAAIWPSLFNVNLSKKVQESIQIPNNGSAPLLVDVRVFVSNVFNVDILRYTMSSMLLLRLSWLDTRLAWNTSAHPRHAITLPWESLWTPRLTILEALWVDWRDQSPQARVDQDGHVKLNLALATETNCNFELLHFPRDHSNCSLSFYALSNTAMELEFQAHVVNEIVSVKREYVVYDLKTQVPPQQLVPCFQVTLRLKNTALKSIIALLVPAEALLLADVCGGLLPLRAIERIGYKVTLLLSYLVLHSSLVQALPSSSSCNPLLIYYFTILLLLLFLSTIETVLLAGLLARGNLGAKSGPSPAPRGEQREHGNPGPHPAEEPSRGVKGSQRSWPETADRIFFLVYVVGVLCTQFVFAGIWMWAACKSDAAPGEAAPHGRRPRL
Experimental: (§1) The cDNAs for the various WT and chimeric CLR subunits were linearized and subsequently transcribed and capped mMessage mMachine T7 RNA transcription kit (Ambion, Waltham, MA). […]
(§2) On the day of experiment, all compound dilutions were prepared in a saline solution [115 mM NaCl, 2.5 mM KCl, 10 mM MOPS (pH 7.5), 1.8 mM CaCl2, 0.1 mM MgCl2] and pH adjusted to 7.5 (if needed). […] Currents were recorded using pCLAMP 10 (Molecular Devices, Sunnyvale, CA). […]
(§3) In all recordings, the compounds or compound combinations were applied in the bath until the peak current decayed to a steady state (up to 30 sec at the most). […] The functional properties of the modulators at the CLRs were determined by pre-application of the modulator to the perfusate 30 sec and followed by co-application of the modulator and the agonist to the perfusate. […]
(§4) Data analysis of the results from the TEVC recordings were performed using Clampfit software version 10.5 (Molecular Devices, Crawley, UK) and GraphPad Prism version 7.0c (GraphPad Software, Inc. La Jolla, CA). […] I-V relationships were analyzed by fitting the curves with a third order polynomial model. […]

[2] = target: hα3β4 nAChR (Homo sapiens, UniProt P30926+P32297); test: TEVC selectivity, hα3β4 nAChR in oocytes; format: cell-based; settings: 30 μM, 30 s preapplication, 3 μM (S)-nicotine (EC20–EC40)
hα3β4 nAChR, sequence (P32297 32-505): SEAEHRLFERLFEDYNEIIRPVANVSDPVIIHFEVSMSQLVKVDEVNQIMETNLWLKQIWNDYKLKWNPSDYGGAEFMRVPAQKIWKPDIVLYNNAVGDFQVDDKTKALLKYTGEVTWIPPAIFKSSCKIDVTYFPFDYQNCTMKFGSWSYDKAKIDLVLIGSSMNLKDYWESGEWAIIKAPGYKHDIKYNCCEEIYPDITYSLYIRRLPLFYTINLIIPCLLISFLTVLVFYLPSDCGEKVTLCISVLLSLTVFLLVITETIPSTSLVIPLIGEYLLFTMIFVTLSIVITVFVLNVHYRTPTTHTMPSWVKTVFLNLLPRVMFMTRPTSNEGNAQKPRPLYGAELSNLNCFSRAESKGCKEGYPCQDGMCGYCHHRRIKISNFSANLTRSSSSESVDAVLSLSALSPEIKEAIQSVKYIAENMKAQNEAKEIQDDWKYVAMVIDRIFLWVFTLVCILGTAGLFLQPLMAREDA
hα3β4 nAChR, sequence (P30926 22-498): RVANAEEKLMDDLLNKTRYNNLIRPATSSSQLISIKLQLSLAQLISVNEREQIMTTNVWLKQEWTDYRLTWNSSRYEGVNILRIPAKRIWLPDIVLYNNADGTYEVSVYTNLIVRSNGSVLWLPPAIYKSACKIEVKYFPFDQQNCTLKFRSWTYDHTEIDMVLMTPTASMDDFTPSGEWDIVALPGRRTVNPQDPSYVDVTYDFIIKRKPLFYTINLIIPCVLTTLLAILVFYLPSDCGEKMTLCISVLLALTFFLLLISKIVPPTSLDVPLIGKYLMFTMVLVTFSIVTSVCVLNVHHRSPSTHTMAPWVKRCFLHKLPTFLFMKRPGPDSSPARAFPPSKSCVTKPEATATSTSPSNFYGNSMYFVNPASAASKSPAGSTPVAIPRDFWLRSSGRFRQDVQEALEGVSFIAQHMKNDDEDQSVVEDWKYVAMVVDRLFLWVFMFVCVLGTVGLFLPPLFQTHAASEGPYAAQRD
Experimental: as §1, §2, §3, §4

[3] = tested on: m5-HT3A/ZAC; test: TEVC, chimeric m5-HT3A/ZAC receptor in oocytes; format: cell-based, mouse/human; settings: 30 μM, 0.3 μM 5-HT
Experimental: as §1, §2, §3, §4

[4] = tested on: ZAC/hα1-Gly; test: TEVC, chimeric ZAC/hα1-Gly receptor in oocytes; format: cell-based, human; settings: 30 μM, EC20–EC40 Zn2+
Experimental: as §1, §2, §3, §4

[5] = Solubility (remark); format: physicochemical
[6] = target: T2, h5-HT3A (Homo sapiens, UniProt P46098); test: FMP assay at h5-HT3A-HEK293 cells; format: cell-based; settings: concentrations up to 100 μM, data not shown
T2 construct: expressed in transfected cells
T2 sequence (P46098 24-478): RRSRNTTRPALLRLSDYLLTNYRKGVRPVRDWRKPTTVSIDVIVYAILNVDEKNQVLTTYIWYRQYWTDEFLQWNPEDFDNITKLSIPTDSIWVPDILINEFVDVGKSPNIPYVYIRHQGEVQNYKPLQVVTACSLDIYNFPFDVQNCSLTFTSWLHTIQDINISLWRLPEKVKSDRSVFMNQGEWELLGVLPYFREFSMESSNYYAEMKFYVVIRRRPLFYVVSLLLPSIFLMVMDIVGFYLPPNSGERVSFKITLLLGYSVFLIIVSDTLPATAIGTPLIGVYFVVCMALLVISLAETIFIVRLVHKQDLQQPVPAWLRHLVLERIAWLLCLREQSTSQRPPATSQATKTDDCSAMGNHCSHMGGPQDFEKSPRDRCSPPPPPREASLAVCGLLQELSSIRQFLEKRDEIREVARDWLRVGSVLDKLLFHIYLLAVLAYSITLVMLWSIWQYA

CC(C)(C)c1csc(NC(=O)c2cccc(F)c2)n1 [5a, N-(4-(tert-butyl)thiazol-2-yl)-3-fluorobenzamide]
Voltage dependence of ZAC inhibition ([1]; 10 μM, H+ (pH 6.5)-evoked currents, −60 mV and +60 mV): voltage-independent | IC50 ([1]; H+ (pH 6.0) as agonist, TEVC, steady-state current, n = 6): 8.5 µM | Agonist, antagonist or PAM activity [2]: did not display significant activity | Modulation of 5-HT-induced response [3]: complete inhibition | Modulation of Zn2+-induced response [4]: negligible effect | Solubility (in words) [5]: limited solubility

COC(=O)c1sc(NC(=O)c2cc(Br)ccc2Cl)nc1C [compound 1, 2-(5-bromo-2-chlorobenzamido)-4-methylthiazole-5-methyl ester]
Effect on 5-HT-induced response [6]: did not affect
